Here are results for 30 compounds from US10093653B2, “Vitamin D receptor-coregulator inhibitors” (UWM Research Foundation, Inc., priority 2011, dated 2018).

For series [1] the following is noted: 12 h, pH 7.4.
For series [2] the following is noted: PAMPA. (In general: PAMPA measures passive passage across an artificial lipid membrane.)
Series [3] relates to HEK293T cells. The series can be described thus: Toxicity by Cell-Titer Glo after the FRET assay. As to conditions: for Toxicity (%): Conc. 62.5 μM. It is filed as cell-based.
For series [4], the system named is VDR in SKOV-3 cells. Briefly: VDR expression, western blotting of whole cell lysate. It is filed as cell-based. As to conditions: SKOV-3, 24 hours; 31b 25 and 50 uM, 32b 50 uM. The protocol: Expression of VDR was analyzed by western blotting of whole cell lysate using monoclonal antibody against VDR (Neomarker, Calif. cat no-RT-200PO).
For orientation: In western blotting, separated proteins are transferred to a membrane and probed.

Series [5] relates to SKOV-3. Briefly: Cytotoxicity, MTS assay. The series is classed as cell-based. As to conditions: SKOV-3, within 48 hours. A general note: Tetrazolium assays rely on reduction of a dye to a coloured formazan, in cell work by metabolically active cells.
Series [6] has as its system OVCAR-8. The series can be described thus: Cytotoxicity, MTS assay. As to conditions: OVCAR-8, within 48 hours. The series is classed as cell-based.
Series [7] has as its system ECC-1. The series can be described thus: Cytotoxicity, MTS assay. As to conditions: ECC-1 endometrial cancer cell-line, within 48 hours. The series is classed as cell-based.
The test system of series [8] is SKOV-3 cells. Briefly: Western blots for phospho-p38 MAPkinase and phospho SAPK/JNK. As to conditions: SKOV-3, 25 uM, within 24 hours. It is filed as cell-based. The source says:
Vitamin-d/VDR signaling protects the cancer cells from reactive oxygen species (ROS) induced cellular damages.

For series [9], the system named is CYP24A1. Briefly: CYP24A1 expression levels. The series is classed as cell-based. As to conditions: compound in presence and absence of 1,25-(OH)2D3.
Series [10] has as its system TRPV6 in DU145 cells. Briefly: TRPV6 expression, semi-quantitative RT-PCR. It is filed as cell-based. As to conditions: 20 nM.

SMILES strings stand for the structures. ≈ marks a conversion by molar mass, not a printed value.
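For Permeability Log(Pe) in this document: passive permeability measured by parallel artificial membrane permeability assay, each experiment run in triplicate.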
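For Permeability values (log Pe) of standards in this document: passive permeability measured by parallel artificial membrane permeability assay, each experiment run in triplicate.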

The term Solubility denotes the dissolved amount per volume that the medium holds. `Cc1[nH]c2ccccc2c1C(Nc1ccccc1)c1ccc(N(C)C)cc1` (stereo not drawn) [Compound 30e, N,N-dimethyl-4-((2-methyl-1H-indol-3-yl)(phenylamino)methyl)aniline] yielded a Solubility in series [1] of 157.7 µM (≈ 56.1 µg/mL). Further, the “Permeability Log(Pe)” value in [2] is on record as −6.88 cm/s.

In [1], `Cn1cc(C(Nc2ccccc2)c2ccccc2Cl)c2ccccc21` (stereo not drawn) [Compound 32a, N-((2-chlorophenyl)(1-methyl-1H-indol-3-yl)methyl)aniline] showed a Solubility of 15.3 µM (≈ 5.31 µg/mL). The “Permeability Log(Pe)” value in series [2] was −6.58 cm/s.

For the compound `Cc1[nH]c2ccccc2c1C(Nc1ccccc1)c1ccccc1Cl` (stereo not drawn) [Compound 31a, N-((2-chlorophenyl)(2-methyl-1H-indol-3-yl)methyl)aniline], the Solubility in series [1] was determined as 31.6 µM (≈ 11 µg/mL). In addition, the “Permeability Log(Pe)” value in [2] was −6.41 cm/s.

For `Cc1[nH]c2ccccc2c1C(Nc1ccccn1)c1cccc(Br)c1` (stereo not drawn) [Compound 14], in [3], the “Toxicity (%)” value came out at 100%. Besides, in [2], the “Permeability Log(Pe)” value was −6.11 cm/s.

Turning to `Cc1[nH]c2ccccc2c1C(Nc1ccccn1)c1ccc(F)cc1` (stereo not drawn) [Compound 16], the “Toxicity (%)” value in [3] was 100%. In series [2], the “Permeability Log(Pe)” value was −6.05 cm/s.

Take `COc1cccc(C(Nc2ccccn2)c2c(C)[nH]c3ccccc23)c1` (stereo not drawn) [Compound 13]: the “Toxicity (%)” value in series [3] is 60%. Besides, the “Permeability Log(Pe)” value in [2] is listed as −6.12 cm/s.

Turning to `Cc1ccc(C(Nc2ccccn2)c2c(C)[nH]c3ccccc23)cc1` (stereo not drawn) [Compound 12], the “Toxicity (%)” value in series [3] worked out at 90%. Also, the “Permeability Log(Pe)” value in [2] is given as −6.10 cm/s.

For the compound `Cc1[nH]c2ccccc2c1C(Nc1ccc([N+](=O)[O-])cc1)c1ccccc1Cl` (stereo not drawn) [Compound 31f, N-((2-chlorophenyl)(2-methyl-1H-indol-3-yl)methyl)-4-nitroaniline], the Solubility in series [1] was 4.9 µM (≈ 1.92 µg/mL). The “Permeability Log(Pe)” value in [2] is recorded as −7.60 cm/s.

Consider `Cc1[nH]c2ccccc2c1C(Nc1ccccn1)c1ccc(Br)cc1` (stereo not drawn) [Compound 15], for which the “Permeability Log(Pe)” value in series [2] is −6.01 cm/s.

Consider `COc1ccc(NC(c2ccccc2Cl)c2c(C)[nH]c3ccccc23)cc1` (stereo not drawn) [Compound 31c, N-((2-chlorophenyl)(2-methyl-1H-indol-3-yl)methyl)-4-methoxyaniline], for which the Solubility in [1] was determined as 84.2 µM (≈ 31.7 µg/mL). In addition, the “Permeability Log(Pe)” value in series [2] is listed as −6.30 cm/s.

Turning to `Cc1[nH]c2ccccc2c1C(Sc1ccccc1)c1ccccc1Cl` (stereo not drawn) [Compound 32c, 3-((2-chlorophenyl)(phenylthio)methyl)-2-methyl-1H-indole], in series [1], the Solubility is 11.8 µM (≈ 4.29 µg/mL). Also, the “Permeability Log(Pe)” value in [2] is −6.89 cm/s.

`Cc1[nH]c2ccccc2c1C(Nc1ccccc1)c1ccc(Cl)cc1` (stereo not drawn) [Compound 30b, N-((4-chlorophenyl)(2-methyl-1H-indol-3-yl)methyl)aniline]: the Solubility in [1] was 93.9 µM (≈ 32.6 µg/mL). Besides, the “Permeability Log(Pe)” value in series [2] is listed as −6.03 cm/s.

`Cc1ccc(NC(c2ccccc2Cl)c2c(C)[nH]c3ccccc23)cc1` (stereo not drawn) [Compound 31d, N-((2-chlorophenyl)(2-methyl-1H-indol-3-yl)methyl)-4-methylaniline]: the Solubility in [1] amounted to 35.9 µM (≈ 13 µg/mL). The “Permeability Log(Pe)” value in [2] is −6.45 cm/s.

`NC(=O)N1c2ccccc2C=Cc2ccccc21` [carbamazepine, reference compound]: the “Permeability values (log Pe) of standards” value in series [2] is reported as −6.81±0.0011 cm/s.

In series [1], `Cc1ccc(C(Nc2ccccc2)c2c(C)[nH]c3ccccc23)cc1` (stereo not drawn) [Compound 30d, N-((2-methyl-1H-indol-3-yl)(p-tolyl)methyl)aniline] came in with a Solubility of 175.1 µM (≈ 57.2 µg/mL). In series [2], the “Permeability Log(Pe)” value is reported as −6.34 cm/s.

As to `Cc1[nH]c2ccccc2c1C(Nc1ccccc1)c1ccc2ccccc2c1` (stereo not drawn) [Compound 30h, N-((2-methyl-1H-indol-3-yl)(naphthalen-2-yl)methyl)aniline], in series [1], the Solubility is 67.3 µM (≈ 24.4 µg/mL). Also, the “Permeability Log(Pe)” value in series [2] was −6.30 cm/s.

`Clc1ccccc1C(Nc1ccccc1)c1c[nH]c2ccccc12` (stereo not drawn) [Compound 32b, N-((2-chlorophenyl)(1H-indol-3-yl)methyl)aniline]: the “Expression of VDR” value in [4] is given as “downregulation of VDR”. In addition, the “Cytotoxicity, cell viability” value in series [5], in series [6] and in [7] was “did not show any cytotoxicity” throughout. Moreover, the “Activation of SAPK/JNK” value in series [8] is listed as “did not cause the similar activation”. Also, in series [8], the “Activation of p38 MAPkinase” value is on record as “did not cause the similar activation”. The compound further gave a Solubility in series [1] of 52.3 µM (≈ 17.4 µg/mL). For the same compound, the “Permeability Log(Pe)” value in series [2] is −6.51 cm/s.

In the case of `Cc1[nH]c2ccccc2c1C(Nc1ccccn1)c1cccc(F)c1` (stereo not drawn) [Compound 19], the “Permeability Log(Pe)” value in series [2] is recorded as −5.99 cm/s.

Regarding `Cc1[nH]c2ccccc2c1C(Nc1ccccc1)c1ccc([N+](=O)[O-])cc1` (stereo not drawn) [Compound 30f, N-((2-methyl-1H-indol-3-yl)(4-nitrophenyl)methyl)aniline], in [1], the Solubility turned out to be 117.6 µM (≈ 42 µg/mL). Also, the “Permeability Log(Pe)” value in [2] is −6.08 cm/s.

Consider `COc1ccccc1NC(c1ccccc1Cl)c1c(C)[nH]c2ccccc12` (stereo not drawn) [Compound 31h, N-((2-chlorophenyl)(2-methyl-1H-indol-3-yl)methyl)-2-methoxyaniline], for which the Solubility in series [1] came out at 59.7 µM (≈ 22.5 µg/mL). The “Permeability Log(Pe)” value in series [2] was −6.22 cm/s.

`COc1ccc(C(Nc2ccccc2)c2c(C)[nH]c3ccccc23)cc1` (stereo not drawn) [Compound 30c, N-((4-methoxyphenyl)(2-methyl-1H-indol-3-yl)methyl)aniline] had a Solubility in [1] of 237.5 µM (≈ 81.3 µg/mL). Further, the “Permeability Log(Pe)” value in [2] is −6.10 cm/s.

`Cc1[nH]c2ccccc2c1C(Nc1ccccn1)c1cccc(Cl)c1` (stereo not drawn) [Compound 18]: the “Toxicity (%)” value in series [3] was determined as 100%. The “Permeability Log(Pe)” value in [2] is −6.01 cm/s.

On to `c1ccc(NC(c2ccccc2)c2c[nH]c3ccccc23)cc1` (stereo not drawn) [Compound 1, N-((1H-indol-3-yl)(phenyl)methyl)aniline], for which the “Modulation of CYP24A1 expression” value in [9] was “no modulation of CYP24A1”.

`Cc1[nH]c2ccccc2c1C(C)Nc1ccccc1` (stereo not drawn) [Compound 30g, N-(1-(2-methyl-1H-indol-3-yl)ethyl)aniline] gave a Solubility in [1] of 189.0 µM (≈ 47.3 µg/mL). For the same compound, in [2], the “Permeability Log(Pe)” value is given as −6.40 cm/s.

`Cc1[nH]c2ccccc2c1C(Nc1ccccc1)c1ccccc1` (stereo not drawn) [Compound 30a, N-((2-methyl-1H-indol-3-yl)(phenyl)methyl)aniline] gave a Solubility in series [1] of 252.9 µM (≈ 79 µg/mL). Further, the “Permeability Log(Pe)” value in series [2] is −6.00 cm/s.

Regarding `CNC(=C[N+](=O)[O-])NCCSCc1ccc(CN(C)C)o1` [Ranitidine, reference compound], the “Permeability values (log Pe) of standards” value in [2] is −8.02±0.074 cm/s.

On to `COc1ccc(C(Nc2ccccn2)c2c(C)[nH]c3ccccc23)cc1` (stereo not drawn) [Compound 11], for which, in series [3], the “Toxicity (%)” value was 100%. The “Permeability Log(Pe)” value in series [2] is listed as −6.25 cm/s.

For the compound `Cc1[nH]c2ccccc2c1C(Nc1ccccn1)c1ccc(C(C)C)cc1` (stereo not drawn) [Compound 17], in series [3] (footnote b, highly active compounds), the “Toxicity LD50 (given instead of percentages)” value is 18.0^b μM. Besides, in series [2], the “Permeability Log(Pe)” value is recorded as −6.12 cm/s.

For the compound `C=C1/C(=C\C=C2/CCC[C@]3(C)[C@@H]([C@H](C)CCCC(C)(C)O)CC[C@@H]23)C[C@@H](O)C[C@@H]1O` [1,25-(OH)2D3, 1,25-dihydroxyvitamin D3, reference compound], in [10], the “TRPV6 expression with VDR ligand” value is “up-regulated”.

For `Cc1[nH]c2ccccc2c1C(Nc1ccc(N(C)C)cc1)c1ccccc1Cl` (stereo not drawn) [Compound 31e, N^1-((2-chlorophenyl)(2-methyl-1H-indol-3-yl)methyl)-N^4,N^4-dimethylbenzene-1,4-diamine], in series [1], the Solubility was 21.0 µM (≈ 8.19 µg/mL). Also, the “Permeability Log(Pe)” value in [2] is −7.28 cm/s.
